According to ChEMBL document CHEMBL5579804, “Synthesis and kinetic evaluation of phosphomimetic inhibitors targeting type B ribose-5-phosphate isomerase from Mycobacterium tuberculosis” (Bioorg Med Chem Lett, 2024):

How the values were obtained:
[1] = Stability in Tris-HCl buffer spiked with alkaline phosphatase incubated for 24 hrs; type: physicochemical
[2] = Stability in Tris-HCl buffer spiked with calf serum incubated for 24 hrs; type: physicochemical, cell-free; conditions: cattle
[3] = Stability in Tris-HCl buffer assessed as compound hydrolysis incubated for 24 hrs; type: physicochemical; conditions: read-out: Drug degradation
[4] = Stability in Tris-HCl buffer incubated for 24 hrs; type: physicochemical
[5] = biological target: T1, Ribose-5-phosphate isomerase B (Escherichia coli (strain K12), UniProt P37351); experiment: Competitive inhibition of Escherichia coli RPIB using D-ribose-5-phosphate as substrate
T1 sequence (P37351 whole entry): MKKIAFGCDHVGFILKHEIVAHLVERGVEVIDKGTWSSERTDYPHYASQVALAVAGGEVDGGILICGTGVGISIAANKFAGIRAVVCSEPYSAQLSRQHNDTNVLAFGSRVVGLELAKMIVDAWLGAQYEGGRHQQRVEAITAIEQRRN

[6] = biological target: T2, Ribose-5-phosphate isomerase B (Mycobacterium tuberculosis, UniProt P9WKD7); experiment: Competitive inhibition of Mycobacterium tuberculosis RPIB assessed as inhibition constant using D-ribose-5-phosphate as substrate by Cheng-Prusoff equation analysis
T2 sequence (P9WKD7 whole entry): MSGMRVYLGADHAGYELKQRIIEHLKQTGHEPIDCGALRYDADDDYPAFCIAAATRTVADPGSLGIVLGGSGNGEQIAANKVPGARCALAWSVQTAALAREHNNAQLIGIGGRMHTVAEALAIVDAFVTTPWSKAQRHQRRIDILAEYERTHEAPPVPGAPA

[7] = biological target: T3, ribose-5-phosphate isomerase (Spinacia oleracea, UniProt Q8RU73); experiment: Competitive inhibition of Spinacia oleracea RPIA assessed as inhibition constant using D-ribose-5-phosphate as substrate by Cheng-Prusoff equation analysis
T3 sequence (Q8RU73 whole entry): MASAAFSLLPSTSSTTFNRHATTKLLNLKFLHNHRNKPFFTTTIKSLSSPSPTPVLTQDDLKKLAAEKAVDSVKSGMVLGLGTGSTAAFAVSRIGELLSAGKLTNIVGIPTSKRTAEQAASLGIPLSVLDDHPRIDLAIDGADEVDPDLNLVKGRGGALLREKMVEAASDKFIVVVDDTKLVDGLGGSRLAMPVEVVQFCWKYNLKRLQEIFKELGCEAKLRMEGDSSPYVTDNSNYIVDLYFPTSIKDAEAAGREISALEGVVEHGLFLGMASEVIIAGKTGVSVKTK

[8] = biological target: T2, Ribose-5-phosphate isomerase B; experiment: Competitive inhibition of Mycobacterium tuberculosis RPIB using D-ribose-5-phosphate as substrate
[9] = biological target: T3, ribose-5-phosphate isomerase; experiment: Competitive inhibition of Spinacia oleracea RPIA using D-ribose-5-phosphate as substrate
[10] = biological target: T1, Ribose-5-phosphate isomerase B; experiment: Competitive inhibition of Escherichia coli RPIB assessed as inhibition constant using D-ribose-5-phosphate as substrate by Cheng-Prusoff equation analysis
[11] = biological target: T2, Ribose-5-phosphate isomerase B; experiment: Competitive inhibition of Mycobacterium tuberculosis RPIB using D-ribose-5-phosphate as substrate assessed as inhibition constant by spectrophotometric analysis
[12] = biological target: T1, Ribose-5-phosphate isomerase B; experiment: Competitive inhibition of Escherichia coli RPIB using D-ribose-5-phosphate as substrate by spectrophotometric analysis
[13] = biological target: T2, Ribose-5-phosphate isomerase B; experiment: Competitive inhibition of Mycobacterium tuberculosis RPIB using D-ribose-5-phosphate as substrate by spectrophotometric analysis

SMILES	Stability [1]	Stability [2]	degraded at 24 h [3] [%]	Stability [4]	IC50 [5] [µM]	Ki [6] [µM]	Ki [7] [µM]	IC50 [8] [µM]	IC50 [9] [µM]	Ki [10] [µM]	Ki [11] [µM]	IC50 [12] [µM]	IC50 [13] [µM]
O=P(O)(O)OC[C@H]1O[C@@H](O)[C@H](O)[C@@H]1O	Unstable	Unstable	10										
CC(C(C(=O)O)C(=O)O)[C@@H](O)[C@@H](O)[C@@H](O)CCP(=O)(O)O (some centres not stated)	Stable	Stable		Stable	1360	80	> 750	200	> 1500				
CC(C(C(=O)O)C(=O)O)[C@@H](O)[C@@H](O)[C@@H](O)CCC(=O)O (some centres not stated)	Stable	Stable		Stable	> 1500	290	> 750	470	> 1500				
O=S(=O)(O)OC[C@H]1OC(O)[C@H](O)[C@@H]1O (some centres not stated)	Stable	Unstable		Stable	160	40	180	120	320	90			
O=S(=O)(O)CC[C@H]1OC(O)[C@H](O)[C@@H]1O (some centres not stated)	Stable	Stable		Stable	480	110	290	240	620	170			
O=P(O)(O)CC[C@H]1OC(O)[C@H](O)[C@@H]1O (some centres not stated)	Stable	Stable		Stable	2410			> 3000	> 3000				
O=C(O)C(C[C@H]1OC(O)[C@H](O)[C@@H]1O)C(=O)O (some centres not stated)	Stable	Stable		Stable	1340	340	450	810	980	670			
O=C(O)[C@@H](O)[C@@H](O)[C@@H](O)COP(=O)(O)O (single isomer, unassigned)	Unstable	Unstable	20		1400		38	21	95		9	1310	31
